Results as given in patent publication US20260364056A1, “METHODS OF TREATMENT OF NON-PANCREATIC GASTROINTESTINAL CANCERS” (IONCTURA bv, priority 2023, published 2026).

What was measured:
Caco2 cells = experiment: Cell viability assay (crystal violet); type: cell-based, human
Method: (§1) Human colorectal adenocarcinoma HT29 and Caco-2 cells, hepatocellular carcinoma HLE cells, cholangiocarcinoma RBE and KKU-M213 cells were purchased from the American […] Culture Collection (ATCC, Manassas, VA, USA). The hepatocellular carcinoma cell line HLF was purchased from JCRB Cell Bank (Japan). All cell lines were cultured in Dulbecco's Modified Eagle Medium (DMEM) supplemented with 10% foetal bovine serum (FBS), 1 mM pyruvate, 25 mM HEPES, 100 U/mL penicillin-streptomycin (all from Thermo Fisher Scientific, Waltham, MA, USA), and maintained in a humidified atmosphere at 37 °C containing 5% CO2. The medium was changed every three days. Oleoyl-LPA was purchased from Avanti Polar Lipids (Birmingham, AL).
(§2) Cells were seeded in 96-well plates at a density of 2000 cells/well in 10% FBS supplemented medium. After 24 h, medium was removed, the cells washed with PBS and cultured in the presence or absence of FBS and of different concentrations of Compound land LPA. After the time set for the experiment, the cells were fixed with a 4% PFA solution and stained with 0.02% crystal violet for 10 min. Subsequently the plates have been washed with water to remove excess dye. The cell-bound dye was redissolved in 1% SDS and the optical density was measured at λ=570 with a iMark™ Microplate Absorbance Reader (Bio-rad).
(§3) FIGS. 2A and 2B show the effect of Compound 1 on cell proliferation in the absence of FBS and in the presence of 10% FBS. […] Cells were grown in serum free culture medium or in presence of 10% FBS and incubated with increasing Compound 1 concentrations or with DMSO (control cells) for 24, 48 and 72 hours. After fixation, proliferation was assessed by crystal violet staining method. *P<0.05.
(§4) To evaluate the anti-proliferative/cytotoxic effects of Compound 1, six different cancer tumour cell lines were treated developed from cholangiocarcinoma (CCA), hepatocellular carcinoma (HCC) and colorectal cancer (CRC), with increasing concentration of the Compound 1 ranging from 10 μM up to 50 μM and at different times of incubation. After 24, 48 and 72 hours of drug treatment, attached cells were fixed and stained with crystal violet dye. This method is used to evaluate the effect of chemotherapeutics or other anti-cancer drugs on cell survival and proliferation. In the first experiments, Compound 1 was administered to cells in culture medium supplemented with 10% FBS. […] To test the hypothesis that the presence of serum, and consequently the endogenous LPA, could interfere with the Compound 1 activity, all the cancer cells were treated with Compound 1 at concentration ranging from 1 μM up to 12 μM, in the presence or absence of 10% FBS.

HLE cells [1] = experiment: Cell viability assay (crystal violet); type: cell-based, human
Method: as §1, §2, §3, §4

HT-29 cells [2] = experiment: Cell viability assay (crystal violet); type: cell-based, human
Method: as §1, §2, §3, §4

KKU-M213 cells [3] = experiment: Cell viability assay (crystal violet); type: cell-based, human
Method: as §1, §2, §3, §4

RBE cells = experiment: Cell viability assay (crystal violet); type: cell-based, human
Method: as §1, §2, §3, §4

HLF cells = experiment: Cell viability assay (crystal violet); type: cell-based
Method: as §1, §2, §3
To evaluate the anti-proliferative/cytotoxic effects of Compound 1, six different cancer tumour cell lines were treated developed from cholangiocarcinoma (CCA), hepatocellular carcinoma (HCC) and colorectal cancer (CRC), with increasing concentration of the Compound 1 ranging from 10 μM up to 50 μM and at different times of incubation. […]

HLE cells [4] = experiment: Wound healing assay; type: cell-based; conditions: Homo sapiens, serum-free, read-out: inhibition of cell migration
Method: (§5) Cells were seeded in a 12-well plate in 10% FBS medium and grown to reach a 80-90% confluence. Then, a scratch was made on the cell monolayer by using a p200 pipette tip. The plate was washed with sterile PBS to remove the debris and on the outer bottom of the plate were created markings with a tip marker, used as reference points. Each cell line was incubated with medium without FBS and containing increasing concentrations of Compound 1 (1-3-9-12 μM). Images were acquired at 0, 24 and 48 h by using a confocal microscope Nikon Eclipse Ti2 in bright field microscope and analysed with image-J. Image-J software was used to measure the scratched area. Cell migratory ability of wound-healing was assessed using the following formula: [(wound area at 0 h)−(wound area at indicated time)]/(wound area at 0 h).
(§6) Images were taken at time 0, 24 h and 48 h and cell migration into the cell-free region (outlined) was quantified.
(§7) Tumor progression is characterized by an enhanced cell motility and invasiveness. To expand upon the knowledge of the effects of Compound 1 on HLE, KKU-m213 and HT-29 cells, their migratory activity was assessed when treated with Compound 1 by using both, a wound healing and a transwell migration assay. Cells were seeded in a 12-well plate and, when a confluent monolayer was reached, an artificial gap was generated between the cells using a pipette tip. […]

KKU-M213 cells [5] = experiment: Wound healing assay; type: cell-based; conditions: Homo sapiens, serum-free, respect to control, after 24 h and 48 h, p<0.05, read-out: reduction in wound closure
Method: as §5, §6, §7

HLE cells [6] = experiment: Transwell migration assay; type: cell-based, human; conditions: 12 μM, 24 h, serum-free medium in upper chamber
Method: (§8) Cell culture inserts with […] pores (Corning, inc.) were coated with 50 μl of a 10 mg/ml Collagen type 1 solution (Gibco). 1.5×10^4 cells were plated in the upper chamber in serum-free medium, in absence or presence of 12 μM Compound 1, while the bottom wells were filled with complete medium. The cells were allowed to migrate across the membrane for at least 16 h. After incubation, the cells were fixed with PFA 4% for 10′ and stained with 0.02% crystal violet for 10′. The excess dye was washed off with tap water and the non-migrated cells were scraped off from the upper surface of the membrane with a cotton swab. Cell migratory ability was assessed by counting the average number of cells at least 5 field at 10× magnification.
as §6
(§9) Tumor progression is characterized by an enhanced cell motility and invasiveness. To expand upon the knowledge of the effects of Compound 1 on HLE, KKU-m213 and HT-29 cells, their migratory activity was assessed when treated with Compound 1 by using both, a wound healing and a transwell migration assay. Cells were seeded in a 12-well plate and, when a confluent monolayer was reached, an artificial gap was generated between the cells using a pipette tip. The scratch closure of migrating cells was observed after […]. […] In HLE cells a 3 μM concentration of Compound 1 is already sufficient to cause a 40% inhibition of cell migration. […] (FIG. 3B).

HT-29 cells [7] = experiment: Transwell migration assay; type: cell-based, human; conditions: 12 μM, 24 h, serum-free medium in upper chamber
Method: as §8, §6, §9

KKU-M213 cells [8] = experiment: Transwell migration assay; type: cell-based, human; conditions: 12 μM, 24 h, serum-free medium in upper chamber
Method: as §8, §6, §9

ATX = conditions: cited from earlier work
[9] = 1 μM up to 12 μM, 10% FBS, 24, 48 and 72 h
[10] = 3 to 12 μM, absence of FBS, evident after 48 h, stronger after 72 h
[11] = 30 to 50 μM, medium with 10% FBS

C[C@H](NC(=O)CCc1nc2cccnc2n1Cc1ccc(OC(F)(F)F)cc1)c1ccc(Cl)cc1 [Compound 1, N-[(S)-1-(4-chloro-phenyl)-ethyl]-3-[3-(4-trifluoromethoxy-benzyl)-3H-imidazo[4,5-b]pyridin-2-yl]-propionamide]
effect on cell proliferation (Caco2 cells; [9]): generally the same as the control
cytotoxic effect / inhibition of cell proliferation (Caco2 cells; [10]): significant (p<0.05) cytotoxic effect in a dose-dependent manner
cytotoxic effect (Caco2 cells; [11]): significant (p<0.05) cytotoxic effect
effect on cell proliferation (HLE cells [1]; [9]): generally the same as the control
effect of FBS on activity of Compound 1 (HLE cells [1]; 9 μM, 72 h, 5% FBS): completely abolishing the Compound 1 effect
cell inhibition compared to control (HLE cells [1]; 9 μM, 72 h, no FBS): clear difference in the cell inhibition compared to the control
effect of FBS on activity of Compound 1 (HLE cells [1]; 9 μM, 72 h, starting at 2% FBS): significantly (p<0.05) reduced the activity of Compound 1
cytotoxic effect / inhibition of cell proliferation (HLE cells [1]; [10]): significant (p<0.05) cytotoxic effect in a dose-dependent manner
cytotoxic effect (HLE cells [1]; [11]): significant (p<0.05) cytotoxic effect
effect on cell proliferation (HT-29 cells [2]; [9]): generally the same as the control
effect of FBS on activity of Compound 1 (HT-29 cells [2]; 9 μM, 72 h, 5% FBS): completely abolishing the Compound 1 effect
cell inhibition compared to control (HT-29 cells [2]; 9 μM, 72 h, no FBS): clear difference in the cell inhibition compared to the control
effect of FBS on activity of Compound 1 (HT-29 cells [2]; 9 μM, 72 h, starting at 2% FBS): significantly (p<0.05) reduced the activity of Compound 1
cytotoxic effect / inhibition of cell proliferation (HT-29 cells [2]; [10]): significant (p<0.05) cytotoxic effect in a dose-dependent manner
cytotoxic effect (HT-29 cells [2]; [11]): significant (p<0.05) cytotoxic effect
effect on cell proliferation (KKU-M213 cells [3]; [9]): generally the same as the control
effect of FBS on activity of Compound 1 (KKU-M213 cells [3]; 9 μM, 72 h, 5% FBS): completely abolishing the Compound 1 effect
cell inhibition compared to control (KKU-M213 cells [3]; 9 μM, 72 h, no FBS): clear difference in the cell inhibition compared to the control
effect of FBS on activity of Compound 1 (KKU-M213 cells [3]; 9 μM, 72 h, starting at 2% FBS): significantly (p<0.05) reduced the activity of Compound 1
cytotoxic effect / inhibition of cell proliferation (KKU-M213 cells [3]; [10]): significant (p<0.05) cytotoxic effect in a dose-dependent manner
cytotoxic effect (KKU-M213 cells [3]; [11]): significant (p<0.05) cytotoxic effect
effect on cell proliferation (RBE cells; [9]): generally the same as the control
cytotoxic effect / inhibition of cell proliferation (RBE cells; [10]): significant (p<0.05) cytotoxic effect in a dose-dependent manner
cytotoxic effect (RBE cells; [11]): significant (p<0.05) cytotoxic effect
effect on cell proliferation (HLF cells; [9]): generally the same as the control
cytotoxic effect / inhibition of cell proliferation (HLF cells; [10]): significant (p<0.05) cytotoxic effect in a dose-dependent manner
cytotoxic effect (HLF cells; [11]): significant (p<0.05) cytotoxic effect
inhibition at 3 µM (HLE cells [4]): 40%
inhibition at 9 µM (KKU-M213 cells [5]): ~50%
migratory capacity (migrated cells through the membrane) (HLE cells [6]): significantly inhibited migratory capacity
migratory capacity (migrated cells through the membrane) (HT-29 cells [7]): significantly inhibited migratory capacity
migratory capacity (migrated cells through the membrane) (KKU-M213 cells [8]): significantly inhibited migratory capacity
binding site on ATX (ATX): does not bind to the catalytic zinc region of ATX but binds to both the substrate pocket and the LPA carrier channel
